Experimental data as given in US20150353495A1 (PORTOLA PHARMACEUTICALS, INC., priority 2010, published 2015).

Columns and labels:
Format in all cases: biochemical
JAK3 = molecular target: T1, JAK3 (Homo sapiens, UniProt P52333); assay: Z'-LYTE kinase assay JAK3
T1 construct: 5 μl of catalytic domain recombinant Kinase enzyme+Tyr peptide substrate (Invitrogen, CA); purchased Invitrogen
Procedure: (§1) JAK and TYK2 tyrosine phosphorylation activity is measured using the Z′-LYTE™ Technology developed by Invitrogen Corporation (Carlsbad, Calif.). For JAK1, JAK2 and JAK3 the Z′-LYTE™ Kinase Assay Kit-Tyr6 Peptide (part number PV4122) was used. For TYK2 the Z′-LYTE™ Kinase Assay Kit-Tyr6 Peptide (part number PV3192) was used. The Z′-LYTE™ biochemical assay employs a fluorescence resonance energy transfer (FRET) coupled-enzyme format and is based on the differential sensitivity of phosphorylated and non-phosphorylated peptides to proteolitic cleavage. The assay uses a synthetic peptide substrate that is labelled with a donor fluorophore (coumarin) and an acceptor fluorophore (fluorescein) that make up a FRET pair. In the primary reaction (the Kinase Reaction), the kinase transfers the γ-phosphate of ATP to a single tyrosine residue on the substrate, while the presence of a kinase inhibitor in the primary reaction suppresses phosphorylation. In the secondary reaction (the Development Reaction), a site-specific protease (the Development Reagent) is added. The development buffer quenches the Kinase Reaction, while the protease recognizes and cleaves non-phosphorylated Z′-LYTE™ peptide substrate. Cleavage disrupts FRET between the donor and acceptor fluorophores on the non-phosphoryleted substrate, while uncleaved, phosphorylated substrate maintains FRET.
(§2) To test the ability of candidate molecules to inhibit JAK tyrosine phosphorylation activity, molecules are reconstituted in 100% DMSO and serially diluted 1:10 in polypropylene v-bottom microtiter plates. The candidate molecules are then diluted 1:25 into kinase buffer and 2.5 μl transferred into duplicate wells of a 384 well low volume black microtiter assay plate (Corning, USA). The final DMSO concentration in the assay is 1%. The kinase reaction contains 2.5 μl of a candidate molecule, 5 μl of catalytic domain recombinant Kinase enzyme+Tyr peptide substrate (Invitrogen, CA) and 2.5 μl ATP (Invitrogen, CA). The kinase reaction is allowed to procede for 1 hour at room temperature. The protease reaction is initiated by the addition of 5 μl Development Reagent (Invitrogen, CA). After 1 hour incubation at room temperature the fluorescence is measured using a FlexStation plate reader (Molecular Devices, Sunnyvale, Calif.).

JAK1 = molecular target: T2, JAK1 (Homo sapiens, UniProt P23458); assay: Z'-LYTE kinase assay JAK1
T2 construct: 5 μl of catalytic domain recombinant Kinase enzyme+Tyr peptide substrate (Invitrogen, CA); purchased Invitrogen
T2 sequence (P23458 875-1153 limits assumed): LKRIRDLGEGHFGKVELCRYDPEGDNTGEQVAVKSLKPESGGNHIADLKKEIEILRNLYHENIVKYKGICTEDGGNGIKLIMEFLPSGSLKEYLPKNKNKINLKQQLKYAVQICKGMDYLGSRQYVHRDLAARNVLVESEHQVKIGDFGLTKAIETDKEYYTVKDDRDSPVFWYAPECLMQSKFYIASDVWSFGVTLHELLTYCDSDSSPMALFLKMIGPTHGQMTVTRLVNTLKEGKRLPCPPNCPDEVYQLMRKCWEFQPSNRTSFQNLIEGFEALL
Procedure: as §1, §2

JAK2 = molecular target: T3, JAK2 (Homo sapiens, UniProt O60674); assay: Z'-LYTE kinase assay JAK2
T3 construct: 5 μl of catalytic domain recombinant Kinase enzyme+Tyr peptide substrate (Invitrogen, CA); purchased Invitrogen
T3 sequence (O60674 849-1124 limits assumed): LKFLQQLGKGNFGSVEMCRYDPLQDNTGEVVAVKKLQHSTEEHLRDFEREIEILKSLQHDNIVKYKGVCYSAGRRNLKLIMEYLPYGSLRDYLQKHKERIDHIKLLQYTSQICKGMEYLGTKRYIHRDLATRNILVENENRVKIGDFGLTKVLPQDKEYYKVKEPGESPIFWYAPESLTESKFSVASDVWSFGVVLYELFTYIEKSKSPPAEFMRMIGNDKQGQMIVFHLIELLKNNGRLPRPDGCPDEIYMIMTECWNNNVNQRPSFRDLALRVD
Procedure: as §1, §2

T1 sequence (P52333 822-1111 limits assumed): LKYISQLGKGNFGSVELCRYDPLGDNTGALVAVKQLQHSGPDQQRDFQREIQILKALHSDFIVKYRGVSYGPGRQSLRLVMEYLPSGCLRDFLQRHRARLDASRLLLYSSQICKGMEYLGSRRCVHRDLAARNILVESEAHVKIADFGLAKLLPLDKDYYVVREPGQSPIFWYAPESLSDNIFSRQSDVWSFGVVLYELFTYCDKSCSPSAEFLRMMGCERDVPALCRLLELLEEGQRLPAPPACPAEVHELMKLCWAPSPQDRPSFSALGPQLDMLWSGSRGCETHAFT

IC50 (JAK3) [nM] | IC50 (JAK1) [nM] | IC50 (JAK2) [nM] | Compound
100 to 1000 | 100 to 1000 | 100 to 1000 | NC(=O)c1cnc(Nc2ccc(C3CCOCC3)cc2)cc1NC1CCCC1 [Example 150, 4-(cyclopentylamino)-6-(4-(tetrahydro-2H-pyran-4-yl)phenylamino)nicotinamide]
100 to 1000 | 100 to 1000 | 100 to 1000 | NC(=O)c1cnc(Nc2cccc(C3CCOCC3)c2)cc1NC1CCOCC1 [Example 151, 6-(3-(tetrahydro-2H-pyran-4-yl)phenylamino)-4-(tetrahydro-2H-pyran-4-ylamino)nicotinamide]
1 to 10 | 100 to 1000 | 10 to 100 | NC(=O)c1cnc(Nc2cccc(C3CCOCC3)c2)cc1NCc1ccccc1F [Example 152, 4-(2-fluorobenzylamino)-6-(3-(tetrahydro-2H-pyran-4-yl)phenylamino)nicotinamide]
100 to 1000 | > 1000 | 100 to 1000 | NC(=O)c1cnc(Nc2ccc(C3CCOCC3)cc2)cc1NCC1CC1 [Example 153, 4-(cyclopropylmethylamino)-6-(4-(tetrahydro-2H-pyran-4-yl)phenylamino)nicotinamide]
10 to 100 | > 1000 | 100 to 1000 | NC(=O)c1cnc(Nc2ccc(C3CCOCC3)cc2)cc1NCC1CCCC1 [Example 154, 4-(cyclopentylmethylamino)-6-(4-(tetrahydro-2H-pyran-4-yl)phenylamino)nicotinamide]
100 to 1000 | 100 to 1000 | 100 to 1000 | CC(C)(C)CNc1cc(Nc2ccc(C3CCOCC3)cc2)ncc1C(N)=O [Example 155, 4-(neopentylamino)-6-(4-(tetrahydro-2H-pyran-4-yl)phenylamino)nicotinamide]
100 to 1000 | 100 to 1000 | 100 to 1000 | CC(C)CNc1cc(Nc2ccc(C3CCOCC3)cc2)ncc1C(N)=O [Example 156, 4-(isobutylamino)-6-(4-(tetrahydro-2H-pyran-4-yl)phenylamino)nicotinamide]
100 to 1000 | > 1000 | > 1000 | NC(=O)c1cnc(Nc2ccc(C3CCOCC3)cc2)cc1NC1CCCCC1 [Example 157, 4-(cyclohexylamino)-6-(4-(tetrahydro-2H-pyran-4-yl)phenylamino)nicotinamide]
10 to 100 | > 1000 | > 1000 | CC(C)c1ccc(Nc2cc(NCc3ccccc3F)c(C(N)=O)cn2)cc1 [Example 158, 4-(2-fluorobenzylamino)-6-(4-isopropylphenylamino)nicotinamide]
100 to 1000 | > 1000 | > 1000 | CS(=O)(=O)N1CCC(CNc2cc(Nc3ccc(C4CCOCC4)cc3)ncc2C(N)=O)CC1 [Example 159, 4-((1-(methylsulfonyl)piperidin-4-yl)methylamino)-6-(4-(tetrahydro-2H-pyran-4-yl)phenylamino)nicotinamide]
> 1000 | > 1000 | > 1000 | CCS(=O)(=O)N1CCC(CNc2cc(Nc3ccc(C4CCOCC4)cc3)ncc2C(N)=O)CC1 [Example 160, 4-((1-(ethylsulfonyl)piperidin-4-yl)methylamino)-6-(4-(tetrahydro-2H-pyran-4-yl)phenylamino)nicotinamide]
> 1000 | > 1000 | > 1000 | CCC(=O)N1CCC(CNc2cc(Nc3ccc(C4CCOCC4)cc3)ncc2C(N)=O)CC1 [Example 161]
100 to 1000 | > 1000 | > 1000 | CC(C)c1cccc(Nc2cc(NCc3ccccc3F)c(C(N)=O)cn2)c1 [Example 162, 4-(2-fluorobenzylamino)-6-(3-isopropylphenylamino)nicotinamide]
100 to 1000 | > 1000 | > 1000 | CN(C)C(=O)N1CCC(Nc2cc(Nc3ccc(C4CCOCC4)cc3)ncc2C(N)=O)CC1 [Example 163, 4-(1-(dimethylcarbamoyl)piperidin-4-ylamino)-6-(4-(tetrahydro-2H-pyran-4-yl)phenylamino)nicotinamide]
> 1000 | > 1000 | > 1000 | CCC(=O)N1CCC(Nc2cc(Nc3ccc(C4CCOCC4)cc3)ncc2C(N)=O)CC1 [Example 164, 4-(1-propionylpiperidin-4-ylamino)-6-(4-(tetrahydro-2H-pyran-4-yl)phenylamino)nicotinamide]
100 to 1000 | 100 to 1000 | > 1000 | CS(=O)(=O)N1CCC(Nc2cc(Nc3ccc(C4CCOCC4)cc3)ncc2C(N)=O)CC1 [Example 165, 4-(1-(methylsulfonyl)piperidin-4-ylamino)-6-(4-(tetrahydro-2H-pyran-4-yl)phenylamino)nicotinamide]
100 to 1000 | > 1000 | 100 to 1000 | CCS(=O)(=O)N1CCC(Nc2cc(Nc3ccc(C4CCOCC4)cc3)ncc2C(N)=O)CC1 [Example 166, 4-(1-(ethylsulfonyl)piperidin-4-ylamino)-6-(4-(tetrahydro-2H-pyran-4-yl)phenylamino)nicotinamide]
100 to 1000 | > 1000 | > 1000 | C[C@H](Nc1cc(Nc2ccc(C3CCOCC3)cc2)ncc1C(N)=O)C(C)(C)C [Example 167, (S)-4-(3,3-dimethylbutan-2-ylamino)-6-(4-(tetrahydro-2H-pyran-4-yl)phenylamino)nicotinamide]
10 to 100 | 100 to 1000 | 10 to 100 | C[C@@H](Nc1cc(Nc2ccc(C3CCOCC3)cc2)ncc1C(N)=O)C(C)(C)C [Example 168, (R)-4-(3,3-dimethylbutan-2-ylamino)-6-(4-(tetrahydro-2H-pyran-4-yl)phenylamino)nicotinamide]
100 to 1000 | > 1000 | > 1000 | CN(C)CC(C)(C)CNc1cc(Nc2ccc(C3CCOCC3)cc2)ncc1C(N)=O [Example 171, 4-(3-(dimethylamino)-2,2-dimethylpropylamino)-6-(4-(tetrahydro-2H-pyran-4-yl)phenylamino)nicotinamide]
10 to 100 | 100 to 1000 | 100 to 1000 | NC(=O)c1cnc(Nc2ccc(C3CCOCC3)cc2)cc1NCc1nccs1 [Example 172, 6-(4-(tetrahydro-2H-pyran-4-yl)phenylamino)-4-(thiazol-2-ylmethylamino)nicotinamide]
100 to 1000 | > 1000 | > 1000 | Cn1cc(CNc2cc(Nc3ccc(C4CCOCC4)cc3)ncc2C(N)=O)cn1 [Example 173, 4-((1-methyl-1H-pyrazol-4-yl)methylamino)-6-(4-(tetrahydro-2H-pyran-4-yl)phenylamino)nicotinamide]
10 to 100 | > 1000 | 100 to 1000 | NC(=O)c1cnc(Nc2ccc(C3CCOCC3)cc2)cc1NCc1ccccn1 [Example 174, 4-(pyridin-2-ylmethylamino)-6-(4-(tetrahydro-2H-pyran-4-yl)phenylamino)nicotinamide]
100 to 1000 | > 1000 | > 1000 | NC(=O)c1cnc(Nc2ccc(C3CCOCC3)cc2)cc1NCc1ncccn1 [Example 175, 4-(pyrimidin-2-ylmethylamino)-6-(4-(tetrahydro-2H-pyran-4-yl)phenylamino)nicotinamide]
10 to 100 | 100 to 1000 | 100 to 1000 | CCC(=O)N1CCC(c2ccc(Nc3cc(NCC4CCCC4)c(C(N)=O)cn3)cc2)CC1 [Example 176, 4-(cyclopentylmethylamino)-6-(4-(1-propionylpiperidin-4-yl)phenylamino)nicotinamide]
10 to 100 | 100 to 1000 | 100 to 1000 | CCC(=O)N1CCC(c2ccc(Nc3cc(NCc4nccs4)c(C(N)=O)cn3)cc2)CC1 [Example 177, 6-(4-(1-propionylpiperidin-4-yl)phenylamino)-4-(thiazol-2-ylmethylamino)nicotinamide]
100 to 1000 | > 1000 | > 1000 | CCC(=O)N1CCC(c2ccc(Nc3cc(NCc4cnn(C)c4)c(C(N)=O)cn3)cc2)CC1 [Example 178, 4-((1-methyl-1H-pyrazol-4-yl)methylamino)-6-(4-(1-propionylpiperidin-4-yl)phenylamino)nicotinamide]
10 to 100 | > 1000 | 100 to 1000 | CCC(=O)N1CCC(c2ccc(Nc3cc(NCc4ccccn4)c(C(N)=O)cn3)cc2)CC1 [Example 179, 6-(4-(1-propionylpiperidin-4-yl)phenylamino)-4-(pyridin-2-ylmethylamino)nicotinamide]
